Patent US8940724B2, “Quinoline derivitives and their uses” (Amgen Inc., priority 2009, dated 2015)

biological target: T1, PI3Kδ (Homo sapiens, UniProt O00329); experiment: PI3Kδ Alphascreen assay; type: biochemical; conditions: not given
T1 construct: Full length p110 subunits of PI3k α, β and δ, N-terminally labeled with polyHis tag; polyHis (N); made in house; host or cells: Sf9 insect cells (baculovirus)
T1 sequence (O00329 whole entry): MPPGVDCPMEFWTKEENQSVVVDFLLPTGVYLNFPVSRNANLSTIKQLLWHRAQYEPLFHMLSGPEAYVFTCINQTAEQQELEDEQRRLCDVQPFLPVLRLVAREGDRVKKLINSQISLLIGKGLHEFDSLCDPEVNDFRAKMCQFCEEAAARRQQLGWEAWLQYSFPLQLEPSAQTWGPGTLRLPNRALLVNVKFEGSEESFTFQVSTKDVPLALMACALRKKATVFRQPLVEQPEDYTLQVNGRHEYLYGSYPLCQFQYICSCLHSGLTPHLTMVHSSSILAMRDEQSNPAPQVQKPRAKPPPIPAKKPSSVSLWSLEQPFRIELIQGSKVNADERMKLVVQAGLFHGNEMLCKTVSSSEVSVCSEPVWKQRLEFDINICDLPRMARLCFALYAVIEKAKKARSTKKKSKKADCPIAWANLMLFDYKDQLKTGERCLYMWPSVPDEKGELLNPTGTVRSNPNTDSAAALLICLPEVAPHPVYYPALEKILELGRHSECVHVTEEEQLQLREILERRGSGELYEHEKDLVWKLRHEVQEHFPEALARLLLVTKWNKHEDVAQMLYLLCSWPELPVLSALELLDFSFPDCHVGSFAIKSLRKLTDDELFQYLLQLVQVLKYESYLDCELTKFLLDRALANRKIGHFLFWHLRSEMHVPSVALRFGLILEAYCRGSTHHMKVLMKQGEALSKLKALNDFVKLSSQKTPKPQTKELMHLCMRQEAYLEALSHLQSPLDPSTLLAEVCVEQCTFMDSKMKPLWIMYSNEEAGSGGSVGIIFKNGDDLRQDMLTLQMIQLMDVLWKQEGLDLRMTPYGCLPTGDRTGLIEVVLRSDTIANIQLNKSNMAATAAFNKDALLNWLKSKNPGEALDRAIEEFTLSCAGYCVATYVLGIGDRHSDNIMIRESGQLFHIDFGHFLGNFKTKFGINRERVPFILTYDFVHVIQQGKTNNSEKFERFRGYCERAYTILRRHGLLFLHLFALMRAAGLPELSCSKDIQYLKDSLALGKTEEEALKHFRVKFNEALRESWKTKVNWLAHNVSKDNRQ
T1 sequence (P27986 whole entry partner): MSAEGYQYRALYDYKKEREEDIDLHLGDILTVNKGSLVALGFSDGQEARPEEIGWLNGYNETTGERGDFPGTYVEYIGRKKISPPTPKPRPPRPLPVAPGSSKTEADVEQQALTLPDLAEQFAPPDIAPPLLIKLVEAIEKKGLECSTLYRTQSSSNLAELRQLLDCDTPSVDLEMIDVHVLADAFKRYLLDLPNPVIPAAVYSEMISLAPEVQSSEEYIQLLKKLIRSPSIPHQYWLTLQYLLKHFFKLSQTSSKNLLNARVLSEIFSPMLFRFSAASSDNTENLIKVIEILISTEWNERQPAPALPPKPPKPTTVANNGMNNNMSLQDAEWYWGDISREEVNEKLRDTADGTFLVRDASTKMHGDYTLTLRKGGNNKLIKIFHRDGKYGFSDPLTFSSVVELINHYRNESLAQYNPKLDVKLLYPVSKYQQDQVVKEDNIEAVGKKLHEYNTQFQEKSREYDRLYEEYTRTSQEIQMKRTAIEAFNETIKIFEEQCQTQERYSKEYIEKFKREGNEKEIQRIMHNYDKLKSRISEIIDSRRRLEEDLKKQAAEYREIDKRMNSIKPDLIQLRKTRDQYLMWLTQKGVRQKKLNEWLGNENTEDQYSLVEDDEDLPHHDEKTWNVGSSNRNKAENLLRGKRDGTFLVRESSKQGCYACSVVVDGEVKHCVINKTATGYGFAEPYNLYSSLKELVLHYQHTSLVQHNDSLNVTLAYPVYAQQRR

Which Ki does the source give for COc1ccc(-c2ncc(N3CCOCC3)cc2Nc2c(C)c(-c3ccccc3S(C)(=O)=O)nc3cc(F)cc(F)c23)cn1 [N-(5,7-difluoro-3-methyl-2-(2-(methylsulfonyl)phenyl)-4-quinolinyl)-6′-methoxy-5-(4-morpholinyl)-2,3′-bipyridin-3-amine] here?
Its Ki is 1.76 nM.

With COc1cncc(-c2ncc(N3CCOCC3)cc2N(C(=O)C(F)(F)F)c2c(C)c(-c3ccccn3)nc3cc(F)cc(F)c23)c1 [N-(5,7-difluoro-3-methyl-2-(2-pyridinyl)-4-quinolinyl)-2,2,2-trifluoro-N-(5′-methoxy-5-(4-morpholinyl)-2,3′-bipyridin-3-yl)-acetamide] as the molecule, how does the Ki read?
Its Ki is 227 nM.

Which Ki does the source give for COc1ncccc1-c1ncc(N2CCOCC2)cc1Nc1c(C)c(-c2ccccn2)nc2cc(F)cc(F)c12 [N-(5,7-difluoro-3-methyl-2-(2-pyridinyl)-4-quinolinyl)-2′-methoxy-5-(4-morpholinyl)-2,3′-bipyridin-3-amine] here?
Its Ki is 121 nM.

For COc1cc(-c2ncc(N3CCOCC3)cc2Nc2c(C)c(-c3ccccn3)nc3cc(F)cc(F)c23)ccn1 [N-(5,7-difluoro-3-methyl-2-(2-pyridinyl)-4-quinolinyl)-2′-methoxy-5-(4-morpholinyl)-2,4′-bipyridin-3-amine], which Ki is on record?
The Ki was 7.93 nM.

With COc1cnccc1-c1ncc(N2CCOCC2)cc1Nc1c(C)c(-c2ccccn2)nc2cc(F)cc(F)c12 [N-(5,7-difluoro-3-methyl-2-(2-pyridinyl)-4-quinolinyl)-3′-methoxy-5-(4-morpholinyl)-2,4′-bipyridin-3-amine] as the molecule, how does the Ki read?
The Ki was 7.68 nM.

For COc1cc(-c2ncc(N3CCOCC3)cc2Nc2c(C)c(-c3ccccn3)nc3cc(F)cc(F)c23)c(F)cn1 [N-(5,7-difluoro-3-methyl-2-(2-pyridinyl)-4-quinolinyl)-5′-fluoro-2′-methoxy-5-(4-morpholinyl)-2,4′-bipyridin-3-amine], which Ki is on record?
The Ki was 23.5 nM.

With COc1cncc(-c2ncc(N3CCOCC3)cc2Nc2c(C)c(-c3ccccn3)nc3cc(F)cc(F)c23)c1 [N-(5,7-difluoro-3-methyl-2-(2-pyridinyl)-4-quinolinyl)-5′-methoxy-5-(4-morpholinyl)-2,3′-bipyridin-3-amine] as the molecule, how does the Ki read?
Its Ki is 0.512 nM.

Which Ki does the source give for CCOc1ccc(-c2ncc(N3CCOCC3)cc2Nc2c(C)c(-c3ccccn3)nc3cc(F)cc(F)c23)cn1 [N-(5,7-difluoro-3-methyl-2-(2-pyridinyl)-4-quinolinyl)-6′-ethoxy-5-(4-morpholinyl)-2,3′-bipyridin-3-amine] here?
The Ki was 2.62 nM.

Which Ki does the source give for COc1ccc(-c2ncc(N3CCOCC3)cc2Nc2c(C)c(-c3ccccn3)nc3cc(F)cc(F)c23)cn1 [N-(5,7-difluoro-3-methyl-2-(2-pyridinyl)-4-quinolinyl)-6′-methoxy-5-(4-morpholinyl)-2,3′-bipyridin-3-amine] here?
The Ki was 1.54 nM.

Which Ki does the source give for Cc1c(-c2cccnc2)nc2cc(F)cc(F)c2c1N(C(=O)C(F)(F)F)c1cncc(N2CCOCC2)c1 [N-(5,7-difluoro-3-methyl-2-(3-pyridinyl)-4-quinolinyl)-2,2,2-trifluoro-N-(5-(4-morpholinyl)-3-pyridinyl)acetamide] here?
Its Ki is 47.3 nM.

With COc1ccc(-c2ncc(N3CCOCC3)cc2Nc2c(C)c(-c3cc(C)ccn3)nc3cc(F)cc(F)c23)cn1 [N-(5,7-difluoro-3-methyl-2-(4-methyl-2-pyridinyl)-4-quinolinyl)-6′-methoxy-5-(4-morpholinyl)-2,3′-bipyridin-3-amine] as the molecule, how does the Ki read?
The Ki was 3.18 nM.

With Cc1c(NCC(=O)O)nc2cc(F)cc(F)c2c1Nc1cncc(N2CCOCC2)c1 [N-(5,7-difluoro-3-methyl-4-((5-(4-morpholinyl)-3-pyridinyl)-amino)-2-quinolinyl)glycine] as the molecule, how does the Ki read?
Its Ki is 131 nM.

For Cc1ccnc(-c2nc3cc(F)cc(F)c3c(Nc3cncc(-c4ccnc(N)n4)c3)c2C)c1 [N-(5-(2-amino-4-pyrimidinyl)-3-pyridinyl)-5,7-difluoro-3-methyl-2-(4-methyl-2-pyridinyl)-4-quinolinamine], which Ki is on record?
The Ki was 5.34 nM.

With Cc1c(-c2ccccc2S(C)(=O)=O)nc2cc(F)cc(F)c2c1Nc1cncc(C2=CCOCC2)c1 [N-(5-(3,6-dihydro-2H-pyran-4-yl)-3-pyridinyl)-5,7-difluoro-3-methyl-2-(2-(methylsulfonyl)phenyl)-4-quinolinamine] as the molecule, how does the Ki read?
The Ki was 1.78 nM.

For Cc1ccnc(-c2nc3cc(F)cc(F)c3c(Nc3cncc(C4=CCOCC4)c3)c2C)c1 [N-(5-(3,6-dihydro-2H-pyran-4-yl)-3-pyridinyl)-5,7-difluoro-3-methyl-2-(4-methyl-2-pyridinyl)-4-quinolinamine], which Ki is on record?
Its Ki is 14.4 nM.

For Cc1c(N2CCOCC2)nc2cc(F)cc(F)c2c1Nc1cncc(C2=CCOCC2)c1 [N-(5-(3,6-dihydro-2H-pyran-4-yl)-3-pyridinyl)-5,7-difluoro-3-methyl-2-(4-morpholinyl)-4-quinolinamine], which Ki is on record?
Its Ki is 68.3 nM.

With COc1cncc(-c2ncc(N3CCOCC3)cc2Nc2c(C)c(-c3cc(C)ccn3)nc3c(Cl)cccc23)c1 [N-(8-chloro-3-methyl-2-(4-methyl-2-pyridinyl)-4-quinolinyl)-5′-methoxy-5-(4-morpholinyl)-2,3′-bipyridin-3-amine] as the molecule, how does the Ki read?
Its Ki is 9.01 nM.

For CCOC(=O)N1CCN(c2nc3cc(F)cc(F)c3c(Nc3cncc(N4CCOCC4)c3)c2C)CC1 [ethyl 4-(5,7-difluoro-3-methyl-4-((5-(4-morpholinyl)-3-pyridinyl)amino)-2-quinolinyl)-1-piperazinecarboxylate], which Ki is on record?
Its Ki is 45.5 nM.

With COC(=O)N1CCN(c2nc3cc(F)cc(F)c3c(Nc3cc(N4CCOCC4)cnc3N3CCOCC3)c2C)CC1 [methyl 4-(4-((2,5-di-4-morpholinyl-3-pyridinyl)amino)-5,7-difluoro-3-methyl-2-quinolinyl)-1-piperazinecarboxylate] as the molecule, how does the Ki read?
The Ki was 7.02 nM.

For COC(=O)N1CCN(c2nc3cc(F)cc(F)c3c(Nc3cncc(N4CCOCC4)c3)c2C)CC1 [methyl 4-(5,7-difluoro-3-methyl-4-((5-(4-morpholinyl)-3-pyridinyl)amino)-2-quinolinyl)-1-piperazinecarboxylate], which Ki is on record?
The Ki was 9.23 nM.

For COC(=O)N1CCN(c2nc3cc(F)cc(F)c3c(Nc3cncc(N4CCOCC4)c3)c2C)C[C@H]1C [methyl (2R)-4-(5,7-difluoro-3-methyl-4-((5-(4-morpholinyl)-3-pyridinyl)amino)-2-quinolinyl)-2-methyl-1-piperazinecarboxylate], which Ki is on record?
Its Ki is 185 nM.

With COC(=O)N1CCN(c2nc3cc(F)cc(F)c3c(Nc3cncc(N4CCOCC4)c3)c2C)C[C@@H]1C [methyl (2S)-4-(5,7-difluoro-3-methyl-4-((5-(4-morpholinyl)-3-pyridinyl)amino)-2-quinolinyl)-2-methyl-1-piperazinecarboxylate] as the molecule, how does the Ki read?
Its Ki is 15 nM.

With COC(=O)N1CCN(c2nc3cc(F)cc(F)c3c(Nc3cncc(N4CCOCC4)c3)c2C)[C@H](C)C1 [methyl (3R)-4-(5,7-difluoro-3-methyl-4-((5-(4-morpholinyl)-3-pyridinyl)amino)-2-quinolinyl)-3-methyl-1-piperazinecarboxylate] as the molecule, how does the Ki read?
Its Ki is 31.8 nM.

For Cc1c(N2CCC[C@@H]2C(=O)OC(C)(C)C)nc2cc(F)cc(F)c2c1Nc1cncc(N2CCOCC2)c1 [tert-butyl 1-(5,7-difluoro-3-methyl-4-((5-(4-morpholinyl)-3-pyridinyl)amino)-2-quinolinyl)-D-prolinate], which Ki is on record?
Its Ki is 18 nM.

With Cc1c(N2CCC[C@H]2C(=O)OC(C)(C)C)nc2cc(F)cc(F)c2c1Nc1cncc(N2CCOCC2)c1 [tert-butyl 1-(5,7-difluoro-3-methyl-4-((5-(4-morpholinyl)-3-pyridinyl)amino)-2-quinolinyl)-L-prolinate] as the molecule, how does the Ki read?
The Ki was 2.22 nM.

Which Ki does the source give for Cc1c(N2CCN(C(=O)OC(C)(C)C)CC2)nc2cc(F)cc(F)c2c1Nc1cc(N2CCOCC2)cnc1N1CCOCC1 [tert-butyl 4-(4-((2,5-di-4-morpholinyl-3-pyridinyl)amino)-5,7-difluoro-3-methyl-2-quinolinyl)-1-piperazinecarboxylate] here?
The Ki was 34.1 nM.

Which Ki does the source give for Cc1c(N2CCN(C(=O)OC(C)(C)C)CC2)nc2cc(F)cc(F)c2c1Nc1cncc(N2CCOCC2)c1 [tert-butyl 4-(5,7-difluoro-3-methyl-4-((5-(4-morpholinyl)-3-pyridinyl)amino)-2-quinolinyl)-1-piperazinecarboxylate] here?
The Ki was 353 nM.

For Cc1c(N2CCN(C(=O)OC(C)(C)C)[C@H](C)C2)nc2cc(F)cc(F)c2c1Nc1cncc(N2CCOCC2)c1 [tert-butyl (2R)-4-(5,7-difluoro-3-methyl-4-((5-(4-morpholinyl)-3-pyridinyl)amino)-2-quinolinyl)-2-methyl-1-piperazinecarboxylate], which Ki is on record?
Its Ki is 832 nM.

With Cc1c(N2CCN(C(=O)OC(C)(C)C)[C@@H](C)C2)nc2cc(F)cc(F)c2c1Nc1cncc(N2CCOCC2)c1 [tert-butyl (2S)-4-(5,7-difluoro-3-methyl-4-((5-(4-morpholinyl)-3-pyridinyl)amino)-2-quinolinyl)-2-methyl-1-piperazinecarboxylate] as the molecule, how does the Ki read?
The Ki was 112 nM.

For Cc1c(N2CCN(C(=O)OC(C)(C)C)C[C@@H]2C)nc2cc(F)cc(F)c2c1Nc1cncc(N2CCOCC2)c1 [tert-butyl (3S)-4-(5,7-difluoro-3-methyl-4-((5-(4-morpholinyl)-3-pyridinyl)amino)-2-quinolinyl)-3-methyl-1-piperazinecarboxylate], which Ki is on record?
Its Ki is 358 nM.

tested on: mouse model of rheumatoid arthritis; experiment: not given; conditions: in vivo; cited from earlier work

For O=C1NC(=O)/C(=C\c2ccc3nccnc3c2)S1 [AS 605240], which “efficacy in a mouse model of rheumatoid arthritis” value is on record?
Its value is “efficacious”.

tested on: model of systemic lupus erythematosis; experiment: not given; conditions: in vivo; cited from earlier work

For O=C1NC(=O)/C(=C\c2ccc3nccnc3c2)S1 [AS 605240], which “onset of disease in a model of systemic lupus erythematosis” value is on record?
Its value is “delay onset of disease”.
